Data as given in US20110319352A1, “Compounds That Bind Oxysterol Binding Proteins, and Methods of Use Thereof” (President and Fellows of Harvard College, priority 2008, published 2011).

Test system: pERK1/2 in HCT-116 cells
Assay: Western blot of pERK1/2
Assay type: cell-based
Conditions: cephalostatin 1 50 nM, 25-OHC 20 μM 12 h
Experimental: FIG. 21 depicts Western blot and densitometry analysis of pERK1/2 in HCT-116 cells during treatment with 50 nM cephalostatin 1. 25-OHC (20 μM) and okadaic acid (OKA, 10 nM) treatments were for 12 h and 24 h, respectively.
As another test of whether CRAMs perturb a known OSBP function, it was determined whether CRAMs induce changes to the phosphorylation state of ERK1/2. As mentioned above, 25-OHC binds OSBP and causes disruption of a complex between OSBP and the phosphatases HePTP and PP2A. This blocks dephosphorylation of pERK1/2, leading to a persistence of pERK1/2. Opposing this effect is cholesterol, which binds OSBP, inducing formation of the OSBP-HePTP-PP2A ternary complex, causing ERK1/2 dephosphorylation (FIG. 13).

Compound: COc1ccc(C(=O)O[C@H]2[C@H](O[C@@H]3[C@@H](OC(C)=O)[C@H](O[C@H]4C[C@H]5[C@@H]6CC=C7C[C@@H](O)CC[C@]7(C)[C@H]6CC[C@]5(C)[C@@]4(O)[C@H](C)C(=O)CCC(C)C)OC[C@@H]3O)OC[C@@H](O)[C@@H]2O)cc1 [OSW-1]
- pERK1/2 levels: increase in pERK1/2 comparable to cephalostatin 1
